Consider 2 substances from patent US20090317372A1, “SMALL MOLECULES FOR THE REDUCTION OF HIGH BLOOD GLUCOSE LEVEL” (priority 2008, published 2009).

The subject of the assay is ob/ob mice. Description: Blood glucose in ob/ob mice, CCcompound1 combined with human proteins AGP and TF. Format: in vivo. On the procedure: For each experimental group, ob/ob mice were chosen (5 mice in each group) that were 43 days old and weighed on average 40.3±1.9-g on the first day of experiment. Three groups of mice were treated with s.c. injection of 4.5-mg/kg CCcompound1 once every day for 17 days. Mice in one of these CCcompound1-treated groups received no other treatment, and their blood was drawn for glucose analysis on day 14 and 17 exactly 45 min after treatment. The second CCcompound1-treated group also received 0.5-mg/mouse (˜11 mg/kg) dose of greater than 98% pure commercial human transferrin [catalogue number, T 3309 according to 2004/2005 Sigma catalogue]. In this second group the blood was drawn on day 14 just prior to TF administration and on day 17 two hours after TF and 45 min after CCcompound1 administration. An additional group of animals received only TF treatment. The third CCcompound1-treated group also received 1.2-mg/mouse (26.6-mg/kg) dose of >99% pure human AGP [catalogue number G 9885 according to 2004/2005 Sigma catalogue]; in this group the blood was drawn on day 14 just prior to AGP administration and on day 17 two hours and 45 minutes after administration of AGP and CCcompound1, respectively. An additional group of animals received only AGP treatment, and yet another group of animals received no treatment at all. On day 1, prior to any treatment, the blood glucose level of all animals was in the range of 7.2-7.9 mM.

[1] abbreviates: 14th day, CC1 4.5-mg/kg s.c. daily, 45 min after treatment, blood drawn just prior to AGP or TF administration.
Where [2] appears, read: 17th day, 45 min after CC1 4.5-mg/kg s.c., two hours after TF 0.5-mg/mouse or AGP 1.2-mg/mouse.

On to “AGP: >99% pure human α1-acid glycoprotein, Sigma G 9885”, for which the Blood glucose level stood at 16.0 ± 0.5 mM under setting [1] and 12.4 ± 0.6 mM under setting [2].

On to “TF: greater than 98% pure commercial human transferrin, Sigma T 3309”, for which the Blood glucose level under setting [1] is reported as 15.8 ± 0.4 mM and the Blood glucose level under setting [2] stood at 13.6 ± 0.7 mM.
